Patent EP3406693B1, “FREEZER OIL FOR R32 REFRIGERANT AND COMPOSITION COMPRISING SAME” (NOF Corporation, priority 2016, dated 2017)

Assays:
Assay type in all cases: physicochemical
Acid number (JIS C2101) = test: Acid number (JIS C2101)
Protocol: According to JIS C2101, the acid number of ester A1 and the like was measured.

Pour point (JIS K2269) = test: Pour point (JIS K2269)
Protocol: According to JIS K2269, the pour point of ester A1 and the like was measured.

[1] = Two-layer separation temperature of ester A1 to A8 and R32 refrigerant; conditions: ester 2 g + R32 refrigerant 6 g, range -60°C to +40°C
Protocol: Using the aforementioned ester A1 to ester A8 as a refrigerating machine oil, a two-layer separation temperature of ester A1 to ester A8 and R32 refrigerant was measured as follows. To be specific, any of ester A1 to ester A8 (2 g) and R32 refrigerant (6 g) were sealed in a pressure-resistant glass tube and cooled from 40°C at a rate of 1°C/min by using an ethanol bath containing dry ice. The temperature at which ester and R32 refrigerant was separated in two layers was measured within the range of -60°C to +40°C by visual observation. One with a two-layer separation temperature of +40°C or above was evaluated as ×, +40°C to -10°C as ○, and - 10°C or below as ⊙.

[2] = Cloud point of additive in 1,1,1,3,3-pentafluorobutane/ethyl acetate (JIS 2269); conditions: 10 mass % in 1,1,1,3,3-pentafluorobutane/ethyl acetate 75/25 (mass ratio)
Protocol: As the aforementioned additive, any can be used as long as it has a cloud point of not less than -30°C when measured under the aforementioned conditions. Only one kind of the aforementioned additive may be used or two or more kinds thereof may be used in combination. […] The cloud point of the aforementioned additive as measured under the above-mentioned conditions is preferably not less than -20°C, more preferably not less than -15°C. The cloud point can be measured according to JIS 2269 "Testing Methods for Pour Point and Cloud Point of Crude Oil and Petroleum Products".
The cloud point when the additive (triphenyl phosphate and glycerol monooleate) used in the production of the below-mentioned refrigerating machine oil composition was dissolved at a concentration of 10 mass % in a mixed solvent of 1,1,1,3,3-pentafluorobutane and ethyl acetate at a mass ratio (1,1,1,3,3-pentafluorobutane/ethyl acetate) of 75/25 was measured according to JIS 2269. The cloud point of triphenyl phosphate measured under these conditions was -3°C and the cloud point of glycerol monooleate was 25°C.

Row | acid number (Acid number (JIS C2101)) | pour point (Pour point (JIS K2269)) | two-layer separation temperature ([1]; cooled from 40°C at 1°C/min, visual) | two-layer separation temperature (evaluation) [1] | Compound | cloud point [2]
1 | 0.1 or below mgKOH/g | -50 °C | ≤ -60 °C | ⊙ (- 10 °C or below as ⊙) | CCCCOC(=O)CC(O)(CC(=O)OCCCC)C(=O)OCCCC [ester A6] | –
2 | – | – | – | – | O=P(Oc1ccccc1)(Oc1ccccc1)Oc1ccccc1 [triphenyl phosphate] | -3 °C
3 | – | – | – | – | CCCCCCCC/C=C\CCCCCCCC(=O)OCC(O)CO (stereo not drawn) [glycerol monooleate] | 25 °C
